Test results: US7632829B2, “Diazepan derivatives” (Hoffmann-La Roche Inc., priority 2006, dated 2009)
Where a name gives a salt, the structure may show the parent alone.

Each compound was assayed against T1, human chemokine receptor 2 isoform B (Homo sapiens, UniProt P41597) (assay: Calcium mobilization assay (FLIPR, CHOK1-CCR2B-A5 cells, 20 nM MCP-1)). Settings: Ca mobilisation assay, CCR2, antagonist activity vs 20 nM MCP-1.
T1 construct: host or cells: CHOK1-CCR2B-A5 (CHO-K1)
T1 sequence (P41597 1-360 isoform P41597-2): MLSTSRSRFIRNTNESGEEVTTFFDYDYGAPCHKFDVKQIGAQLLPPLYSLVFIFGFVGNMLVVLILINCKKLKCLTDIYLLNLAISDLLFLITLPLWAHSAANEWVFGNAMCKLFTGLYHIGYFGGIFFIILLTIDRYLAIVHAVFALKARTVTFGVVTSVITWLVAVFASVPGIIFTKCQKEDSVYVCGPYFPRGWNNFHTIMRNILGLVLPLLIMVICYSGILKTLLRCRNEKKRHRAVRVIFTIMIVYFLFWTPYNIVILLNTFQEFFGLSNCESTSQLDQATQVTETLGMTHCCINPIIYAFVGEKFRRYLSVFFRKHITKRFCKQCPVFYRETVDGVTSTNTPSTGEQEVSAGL
Format: cell-based
Experimental: CHOK1-CCR2B-A5 cells (from Euroscreen) stably overexpressing the human chemokine receptor 2 isoform B were cultured in Nutrient Hams F12 medium supplemented with 5% FBS, 100 U/ml penicillin, 100 μg/ml streptomycin, 400 μg/ml G418 and 5 μg/ml puromycin.
For the assay cells were grown overnight in 384-well black clear flat bottom polystyrene plates (Costar) at 37° C. at 5% CO2. After washing with DMEM, 20 mM Hepes, 2.5 mM probenecid, 0.1% BSA (DMEM assay buffer) cells were loaded with 4 μM Fluo-4 in the same DMEM assay buffer for 2 hours at 30° C. Excess dye was removed and cells were washed with DMEM assay buffer. 384-well compound plates were prepared with DMEM assay buffer/0.5% DMSO with or without various concentrations of test compounds. Usually compounds were tested for agonist and antagonist activity.
Test compounds were added to the assay plate and agonist activity was monitored as fluorescence for 80 seconds with a FLIPR (488 nm excitation; 510-570 nm emission; Molecular Devices). After 20-30 min. of incubation at 30° C., 20 nM MCP-1 (R&D; Roche) was added and fluorescence was monitored again for 80 seconds. Increases in intracellular calcium are reported as maximum fluorescence after agonist exposure minus basal fluorescence before exposure. Antagonist activity is indicated as inhibitor concentration required for 50% inhibition of specific calcium increases.

Structure (SMILES)	IC50
O=C(/C=C/c1ccc(F)c(Cl)c1)N1CCC(=O)N(C[C@@H](O)CN2CC[C@@H](CO)[C@H](O)C2)CC1 (mixture of isomers) [Example 339, 1-[(E)-3-(3-Chloro-4-fluoro-phenyl)-acryloyl]-4-[(S)-2-hydroxy-3-(trans-3-hydroxy-4-hydroxymethyl-piperidin-1-yl)-propyl]-[1,4]diazepan-5-one]	1360 nM
C[C@@H]1C[C@H](O)CN(C[C@H](O)CN2CCN(C(=O)/C=C/c3ccc(F)c(Cl)c3)CCC2=O)C1 (mixture of isomers) [Example 344, 1-[(E)-3-(3-Chloro-4-fluoro-phenyl)-acryloyl]-4-[(S)-2-hydroxy-3-(cis-3-hydroxy-5-methyl-piperidin-1-yl)-propyl]-[1,4]diazepan-5-one]	26 nM
CC1CC(O)CN(CCCCN2CCN(C(=O)C=Cc3ccc(Cl)c(F)c3)CCC2=O)C1 (mixture of isomers) [Example 421, (rac,cis)-1-[(E)-3-(4-Chloro-3-fluoro-phenyl)-acryloyl]-4-[4-(3-hydroxy-5-methyl-piperidin-1-yl)-butyl]-[1,4]diazepan-5-one]	64 nM
CC1C(O)CCCN1CCCCN1CCN(C(=O)C=Cc2ccc(Cl)c(Cl)c2)CCC1=O (mixture of isomers) [Example 428, (rac,trans)-1-[(E)3-(3,4-Dichloro-phenyl)-acryloyl]-4-[4-(3-hydroxy-2-methyl-piperidin-1-yl)-butyl]-[1,4]diazepan-5-one]	113 nM
O=C(C=Cc1ccc(Cl)c(Cl)c1)N1CCC(=O)N(CCCCN2CCC(F)C(O)C2)CC1 (mixture of isomers) [Example 429, (rac,trans)-1-[(E)-3-(3,4-Dichloro-phenyl)-acryloyl]-4-[4-(4-fluoro-3-hydroxy-piperidin-1-yl)-butyl]-[1,4]diazepan-5-one]	86 nM
O=C(C=Cc1ccc(Cl)c(Cl)c1)N1CCC(=O)N(CCCCN2CCC(O)C(F)C2)CC1 (mixture of isomers) [Example 434, (rac,trans)-1-[(E)-3-(3,4-Dichloro-phenyl)-acryloyl]-4-[4-(3-fluoro-4-hydroxy-piperidin-1-yl)-butyl]-[1,4]diazepan-5-one]	140 nM
CC1CC(O)CN(CCCCN2CCN(C(=O)C=Cc3ccc(Cl)c(Cl)c3)CCC2=O)C1 (mixture of isomers) [Example 482, (rac,cis)-1-[(E)-3-(3,4-Dichloro-phenyl)-acryloyl]-4-[4-(3-hydroxy-5-methyl-piperidin-1-yl)-butyl]-[1,4]diazepan-5-one]	13 nM
O=C(/C=C/c1ccc(Cl)c(Cl)c1)N1CCC(=O)N(CCCNC2CC3CCC2C3)CC1 (racemic) [Example 38, (+/−)-4-[3-(Bicyclo[2.2.1]hept-2-ylamino)-propyl]-1-[(E)-3-(3,4-dichloro-phenyl)-acryloyl]-[1,4] diazepan-5-one]	121 nM
CC(=O)NC1CCN(CCCN2CCN(C(=O)/C=C/c3ccc(Cl)c(Cl)c3)CCC2=O)C1 (racemic) [Example 44, (+/−)-N-[1-(E)-(3-{4-[3-(3,4-Dichloro-phenyl)-acryloyl]-7-oxo-[1,4]diazepan-1-yl}-propyl)-pyrrolidin-3-yl]-acetamide]	646 nM
CC1CCCCN1CCCN1CCN(C(=O)/C=C/c2ccc(Cl)c(Cl)c2)CCC1=O (racemic) [Example 62, (+/−)-1-[(E)-3-(3,4-Dichloro-phenyl)-acryloyl]-4-[3-(2-methyl-piperidin-1-yl)-propyl]-[1,4]diazepan-5-one]	165 nM
O=C(/C=C/c1ccc(Cl)c(Cl)c1)N1CCC(=O)N(CCCN2CCC(O)C2)CC1 (racemic) [Example 71, (+/−)-1-[(E)-3-(3,4-Dichloro-phenyl)-acryloyl]-4-[3-(3-hydroxy-pyrrolidin-1-yl)-propyl]-[1,4]diazepan-5-one]	566 nM
COC1CCCN(CCCN2CCN(C(=O)/C=C/c3ccc(Cl)c(Cl)c3)CCC2=O)C1 (racemic) [Example 80, (+/−)-1-[(E)-3-(3,4-Dichloro-phenyl)-acryloyl]-4-[3-(3-methoxy-piperidin-1-yl)-propyl]-[1,4]diazepan-5-one]	263 nM
CC1CCCCN1CCN1CCN(C(=O)C=Cc2ccc(Cl)c(Cl)c2)CCC1=O (racemic) [Example 102, (+/−)-1-[(E)-3-(3,4-Dichloro-phenyl)-acryloyl]-4-[3-(2-methyl-piperidin-1-yl)-ethyl]-[1,4]diazepan-5-one]	1020 nM
O=C(C=Cc1ccc(Cl)c(Cl)c1)N1CCC(=O)N(CCNC2CC3CCC2C3)CC1 (racemic) [Example 110, (+/−)-4-[3-(Bicyclo[2.2.1]hept-2-ylamino)ethyl]-1-[(E)-3-(3,4-dichloro-phenyl)-acryloyl]-[1,4]diazepan-5-one]	641 nM
O=C(/C=C/c1ccc(Cl)c(Cl)c1)N1CCC(=O)N(CCCCN2CCCC(O)C2)CC1 (racemic) [Example 161, 1-[(E)-3-(3,4-Dichloro-phenyl)-acryloyl]-4-[4-(3-hydroxy-piperidin-1-yl)-butyl]-[1,4]diazepan-5-one]	47 nM
O=C(/C=C/c1ccc(Cl)c(Cl)c1)N1CCC(=O)N(CCCCN2CC[C@H](O)[C@H](O)C2)CC1 (racemic) [Example 163, 1-[(E)-3-(3,4-Dichloro-phenyl)-acryloyl]-4-[4-((3RS,4SR)-3,4-dihydroxy-piperidin-1-yl)-butyl]-[1,4]diazepan-5-one hydrochlorid]	560 nM
O=C(/C=C/c1ccc(Cl)c(Cl)c1)N1CCC(=O)N(CCCCN2CC[C@@H](O)[C@H](O)C2)CC1 (racemic) [Example 164, 1-[(E)-3-(3,4-Dichloro-phenyl)-acryloyl]-4-[4-((3RS,4RS)-3,4-dihydroxy-piperidin-1-yl)-butyl]-[1,4]diazepan-5-one hydrochloride]	544 nM
O=C(/C=C/c1ccc(Cl)c(Cl)c1)N1CCC(=O)N(CCCCN2CC[C@@H](O)[C@H](O)C2)CC1 (racemic) [Example 165, 1-[(E)-3-(3,4-Dichloro-phenyl)-acryloyl]-4-[4-((3RS,4RS)-3,4-dihydroxy-piperidin-1-yl)-butyl]-[1,4]diazepan-5-one]	345 nM
O=C(/C=C/c1ccc(Cl)c(Cl)c1)N1CCC(=O)N(CC(O)CN2CCCCC2)CC1 (racemic) [Example 166, (rac)-1-[(E)-3-(3,4-Dichloro-phenyl)-acryloyl]-4-(2-hydroxy-3-piperidin-1-yl-propyl)-[1,4]diazepan-5-one]	212 nM
O=C(/C=C/c1ccc(Cl)c(Cl)c1)N1CCC(=O)N(CC(O)CN2CCC(F)CC2)CC1 (racemic) [Example 169, (rac)-1-[(E)-3-(3,4-Dichloro-phenyl)-acryloyl]-4-[3-(4-fluoro-piperidin-1-yl)-2-hydroxy-propyl]-[1,4]diazepan-5-one]	255 nM
O=C(/C=C/c1ccc(Cl)c(Cl)c1)N1CCC(=O)N(CCC(O)CN2CCCCC2)CC1 (racemic) [Example 170, (rac)-1-[(E)-3-(3,4-Dichloro-phenyl)-acryloyl]-4-(3-hydroxy-4-piperidin-1-yl-butyl)-[1,4]diazepan-5-one]	448 nM
O=C(/C=C/c1ccc(Cl)c(Cl)c1)N1CCC(=O)N(CCC(O)CN2CCCC(O)C2)CC1 (racemic) [Example 171, (rac)-1-[(E)-3-(3,4-Dichloro-phenyl)-acryloyl]-4-[3-hydroxy-4-(3-hydroxy-piperidin-1-yl)-butyl]-[1,4]diazepan-5-one]	995 nM
